Key:
Test in all cases: relative viability (nuclei count vs DMSO), 5 days (fraction); higher = more cells survive
[1] = tested on: LCLC-103H
Outline: (§1)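 For relative viability, nuclei counts in treated wells were divided by those in vehicle wells. Lung cancer cell lines had been pin-tool dosed in 1536-well plates the day after seeding and cultured for 5 days, then fixed and stained in one step (final 0.05% Triton X-100, 1% formaldehyde, 1 ug/ml Hoechst) and imaged at 4×. Doses were one drug alone or a fixed anchor-drug dose plus five library-drug doses (not always all listed) in √10 steps, and values are duplicate-plate medians.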

[2] = tested on: NCI-H358
Outline: as §1

[3] = tested on: NCI-H2405
Outline: as §1

[4] = tested on: NCI-H1944
Outline: as §1

[5] = tested on: NCI-H2085
Outline: as §1

[6] = tested on: NCI-H2342
Outline: as §1

[7] = tested on: UMC-11
Outline: as §1

[8] = tested on: HCC-366
Outline: as §1

[9] = tested on: NCI-H1792
Outline: as §1

[10] = tested on: NCI-H1975
Outline: as §1

[11] = tested on: NCI-H661
Outline: as §1

[12] = tested on: COR-L23
Outline: as §1

[13] = tested on: NCI-H1395
Outline: as §1

[14] = tested on: EPLC-272H
Outline: as §1

[15] = tested on: COR-L 105
Outline: as §1

[16] = tested on: HCC-15
Outline: as §1

[17] = tested on: NCI-H2023
Outline: as §1

[18] = tested on: HARA
Outline: as §1

[19] = tested on: HCC-78
Outline: as §1

[20] = tested on: SK-MES-1
Outline: as §1

[21] = tested on: HCC-44
Outline: as §1

[22] = tested on: HCC-827
Outline: as §1

[23] = tested on: SK-LU-1
Outline: as §1

[24] = tested on: NCI-H1437
Outline: as §1

[25] = tested on: NCI-H727
Outline: as §1

CCCCCCCCCCCC1=C(O)C(=O)C=C(O)C1=O [Embelin] + COc1cccc2cc(-c3nc([C@H]4CC[C@H](C(=O)O)CC4)n4ncnc(N)c34)[nH]c12 [OSI-027] (partner 0.5 µM)
relative viability ([1]; first compound 0.08 µM): 0.467
relative viability ([1]; first compound 0.8 µM): 0.492
relative viability ([1]; first compound 2.53 µM): 0.495
relative viability ([1]; first compound 8 µM): 0.423
relative viability ([2]; first compound 0.08 µM): 0.774
relative viability ([2]; first compound 0.8 µM): 1.01
relative viability ([2]; first compound 2.53 µM): 0.898
relative viability ([2]; first compound 8 µM): 1.07
relative viability ([3]; first compound 0.08 µM): 0.64
relative viability ([3]; first compound 0.8 µM): 0.665
relative viability ([3]; first compound 2.53 µM): 0.659
relative viability ([3]; first compound 8 µM): 0.658
relative viability ([4]; first compound 0.08 µM): 0.41
relative viability ([4]; first compound 0.8 µM): 0.462
relative viability ([4]; first compound 2.53 µM): 0.358
relative viability ([4]; first compound 8 µM): 0.425
relative viability ([5]; first compound 0.08 µM): 0.743
relative viability ([5]; first compound 0.8 µM): 0.84
relative viability ([5]; first compound 2.53 µM): 0.699
relative viability ([5]; first compound 8 µM): 0.646
relative viability ([6]; first compound 0.08 µM): 0.666
relative viability ([6]; first compound 0.8 µM): 0.59
relative viability ([6]; first compound 2.53 µM): 0.676
relative viability ([6]; first compound 8 µM): 0.68
relative viability ([7]; first compound 0.08 µM): 0.441
relative viability ([7]; first compound 0.8 µM): 0.492
relative viability ([7]; first compound 2.53 µM): 0.511
relative viability ([7]; first compound 8 µM): 0.51
relative viability ([8]; first compound 0.08 µM): 0.926
relative viability ([8]; first compound 0.8 µM): 1.16
relative viability ([8]; first compound 2.53 µM): 1.03
relative viability ([8]; first compound 8 µM): 0.905
relative viability ([9]; first compound 0.08 µM): 0.746
relative viability ([9]; first compound 0.8 µM): 0.884
relative viability ([9]; first compound 2.53 µM): 0.711
relative viability ([9]; first compound 8 µM): 0.838
relative viability ([10]; first compound 0.08 µM): 0.728
relative viability ([10]; first compound 0.8 µM): 0.817
relative viability ([10]; first compound 2.53 µM): 0.88
relative viability ([10]; first compound 8 µM): 0.768
relative viability ([11]; first compound 0.08 µM): 0.763
relative viability ([11]; first compound 0.8 µM): 0.784
relative viability ([11]; first compound 2.53 µM): 0.8
relative viability ([11]; first compound 8 µM): 0.769
relative viability ([12]; first compound 0.08 µM): 0.756
relative viability ([12]; first compound 0.8 µM): 0.92
relative viability ([12]; first compound 2.53 µM): 0.923
relative viability ([12]; first compound 8 µM): 0.921
relative viability ([13]; first compound 0.08 µM): 0.657
relative viability ([13]; first compound 0.8 µM): 0.702
relative viability ([13]; first compound 2.53 µM): 0.615
relative viability ([13]; first compound 8 µM): 0.549
relative viability ([14]; first compound 0.08 µM): 0.256
relative viability ([14]; first compound 0.8 µM): 0.319
relative viability ([14]; first compound 2.53 µM): 0.309
relative viability ([14]; first compound 8 µM): 0.255
relative viability ([15]; first compound 0.08 µM): 0.693
relative viability ([15]; first compound 0.8 µM): 0.836
relative viability ([15]; first compound 2.53 µM): 0.602
relative viability ([15]; first compound 8 µM): 0.621
relative viability ([16]; first compound 0.08 µM): 0.666
relative viability ([16]; first compound 0.8 µM): 0.758
relative viability ([16]; first compound 2.53 µM): 0.721
relative viability ([16]; first compound 8 µM): 0.625
relative viability ([17]; first compound 0.08 µM): 0.377
relative viability ([17]; first compound 0.8 µM): 0.468
relative viability ([17]; first compound 2.53 µM): 0.385
relative viability ([17]; first compound 8 µM): 0.398
relative viability ([18]; first compound 0.08 µM): 0.5
relative viability ([18]; first compound 0.8 µM): 0.701
relative viability ([18]; first compound 2.53 µM): 0.601
relative viability ([18]; first compound 8 µM): 0.526
relative viability ([19]; first compound 0.08 µM): 0.371
relative viability ([19]; first compound 0.8 µM): 0.369
relative viability ([19]; first compound 2.53 µM): 0.343
relative viability ([19]; first compound 8 µM): 0.41
relative viability ([20]; first compound 0.08 µM): 0.648
relative viability ([20]; first compound 0.8 µM): 0.66
relative viability ([20]; first compound 2.53 µM): 0.572
relative viability ([20]; first compound 8 µM): 0.521
relative viability ([21]; first compound 0.08 µM): 0.481
relative viability ([21]; first compound 0.8 µM): 0.479
relative viability ([21]; first compound 2.53 µM): 0.344
relative viability ([21]; first compound 8 µM): 0.323
relative viability ([22]; first compound 0.08 µM): 0.749
relative viability ([22]; first compound 0.8 µM): 0.797
relative viability ([22]; first compound 2.53 µM): 0.836
relative viability ([22]; first compound 8 µM): 0.866
relative viability ([23]; first compound 0.08 µM): 0.409
relative viability ([23]; first compound 0.8 µM): 0.373
relative viability ([23]; first compound 2.53 µM): 0.383
relative viability ([23]; first compound 8 µM): 0.34
relative viability ([24]; first compound 0.08 µM): 0.859
relative viability ([24]; first compound 0.8 µM): 1.01
relative viability ([24]; first compound 2.53 µM): 0.934
relative viability ([24]; first compound 8 µM): 0.822
relative viability ([25]; first compound 0.08 µM): 0.659
relative viability ([25]; first compound 0.8 µM): 0.79
relative viability ([25]; first compound 2.53 µM): 0.494
relative viability ([25]; first compound 8 µM): 0.709

CCCCCCCCCCCC1=C(O)C(=O)C=C(O)C1=O [Embelin] + N=C(N)NC(=N)NCCc1ccccc1 [Phenformin] (partner 250 µM)
relative viability ([1]; first compound 0.08 µM): 0.337
relative viability ([1]; first compound 0.8 µM): 0.343
relative viability ([1]; first compound 2.53 µM): 0.367
relative viability ([1]; first compound 8 µM): 0.286
relative viability ([2]; first compound 0.08 µM): 0.322
relative viability ([2]; first compound 0.8 µM): 0.398
relative viability ([2]; first compound 2.53 µM): 0.468
relative viability ([2]; first compound 8 µM): 0.36
relative viability ([3]; first compound 0.08 µM): 0.408
relative viability ([3]; first compound 0.8 µM): 0.445
relative viability ([3]; first compound 2.53 µM): 0.367
relative viability ([3]; first compound 8 µM): 0.341
relative viability ([4]; first compound 0.08 µM): 0.196
relative viability ([4]; first compound 0.8 µM): 0.237
relative viability ([4]; first compound 2.53 µM): 0.203
relative viability ([4]; first compound 8 µM): 0.202
relative viability ([5]; first compound 0.08 µM): 0.708
relative viability ([5]; first compound 0.8 µM): 0.884
relative viability ([5]; first compound 2.53 µM): 0.73
relative viability ([5]; first compound 8 µM): 0.664
relative viability ([6]; first compound 0.08 µM): 0.594
relative viability ([6]; first compound 0.8 µM): 0.551
relative viability ([6]; first compound 2.53 µM): 0.701
relative viability ([6]; first compound 8 µM): 0.516
relative viability ([7]; first compound 0.08 µM): 0.33
relative viability ([7]; first compound 0.8 µM): 0.339
relative viability ([7]; first compound 2.53 µM): 0.323
relative viability ([7]; first compound 8 µM): 0.314
relative viability ([8]; first compound 0.08 µM): 0.646
relative viability ([8]; first compound 0.8 µM): 0.638
relative viability ([8]; first compound 2.53 µM): 0.644
relative viability ([8]; first compound 8 µM): 0.676
relative viability ([9]; first compound 0.8 µM): 0.424
relative viability ([9]; first compound 2.53 µM): 0.271
relative viability ([9]; first compound 8 µM): 0.218
relative viability ([10]; first compound 0.08 µM): 0.445
relative viability ([10]; first compound 0.8 µM): 0.413
relative viability ([10]; first compound 2.53 µM): 0.405
relative viability ([10]; first compound 8 µM): 0.384
relative viability ([11]; first compound 0.08 µM): 0.287
relative viability ([11]; first compound 0.8 µM): 0.312
relative viability ([11]; first compound 2.53 µM): 0.276
relative viability ([11]; first compound 8 µM): 0.261
relative viability ([12]; first compound 0.08 µM): 0.448
relative viability ([12]; first compound 0.8 µM): 0.542
relative viability ([12]; first compound 2.53 µM): 0.426
relative viability ([12]; first compound 8 µM): 0.462
relative viability ([13]; first compound 0.08 µM): 0.46
relative viability ([13]; first compound 0.8 µM): 0.495
relative viability ([13]; first compound 2.53 µM): 0.474
relative viability ([13]; first compound 8 µM): 0.395
relative viability ([14]; first compound 0.08 µM): 0.307
relative viability ([14]; first compound 0.8 µM): 0.288
relative viability ([14]; first compound 2.53 µM): 0.288
relative viability ([14]; first compound 8 µM): 0.288
relative viability ([15]; first compound 0.08 µM): 0.582
relative viability ([15]; first compound 0.8 µM): 0.595
relative viability ([15]; first compound 2.53 µM): 0.446
relative viability ([15]; first compound 8 µM): 0.496
relative viability ([16]; first compound 0.08 µM): 0.477
relative viability ([16]; first compound 0.8 µM): 0.504
relative viability ([16]; first compound 2.53 µM): 0.461
relative viability ([16]; first compound 8 µM): 0.438
relative viability ([17]; first compound 0.08 µM): 0.383
relative viability ([17]; first compound 0.8 µM): 0.469
relative viability ([17]; first compound 2.53 µM): 0.418
relative viability ([17]; first compound 8 µM): 0.327
relative viability ([18]; first compound 0.08 µM): 0.438
relative viability ([18]; first compound 0.8 µM): 0.56
relative viability ([18]; first compound 2.53 µM): 0.497
relative viability ([18]; first compound 8 µM): 0.455
relative viability ([19]; first compound 0.08 µM): 0.661
relative viability ([19]; first compound 0.8 µM): 0.729
relative viability ([19]; first compound 2.53 µM): 0.761
relative viability ([19]; first compound 8 µM): 0.929
relative viability ([20]; first compound 0.08 µM): 0.67
relative viability ([20]; first compound 0.8 µM): 0.694
relative viability ([20]; first compound 2.53 µM): 0.75
relative viability ([20]; first compound 8 µM): 0.585
relative viability ([21]; first compound 0.08 µM): 0.175
relative viability ([21]; first compound 0.8 µM): 0.252
relative viability ([21]; first compound 2.53 µM): 0.0967
relative viability ([21]; first compound 8 µM): 0.0958
relative viability ([22]; first compound 0.08 µM): 0.426
relative viability ([22]; first compound 0.8 µM): 0.451
relative viability ([22]; first compound 2.53 µM): 0.477
relative viability ([22]; first compound 8 µM): 0.443
relative viability ([23]; first compound 0.08 µM): 0.608
relative viability ([23]; first compound 0.8 µM): 0.624
relative viability ([23]; first compound 2.53 µM): 0.534
relative viability ([23]; first compound 8 µM): 0.365
relative viability ([24]; first compound 0.08 µM): 0.4
relative viability ([24]; first compound 0.8 µM): 0.324
relative viability ([24]; first compound 2.53 µM): 0.298
relative viability ([24]; first compound 8 µM): 0.243
relative viability ([25]; first compound 0.08 µM): 0.563
relative viability ([25]; first compound 0.8 µM): 0.597
relative viability ([25]; first compound 2.53 µM): 0.513
relative viability ([25]; first compound 8 µM): 0.5

From the supplement of paper PMC10307832
